Read-outs that look alike come from different tables or passages of the source.
Legend:
[1] = system: rat cardiac contractility (left ventricle fractional shortening); test: Echocardiography of acute effect on rat cardiac contractility, oral gavage; type: in vivo, Sprague Dawley rats; details: for inhibition in vivo at 6 mg/kg: oral gavage
Summary of the method: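 Male Sprague Dawley rats under isoflurane (1-3%) anesthesia had three pre-dose baseline M-mode images of the left ventricle (parasternal long-axis view) taken at 1 minute intervals. Compound in 0.5% HPMC 2910: 0.1% Tween 80 suspension was then given as a single oral gavage dose (5 mL/kg). Fractional shortening was measured at chosen time points over 24 hours, with plasma concentrations sampled concurrently.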

[2] = system: Dahl Salt Sensitive (DSS) rats, hypertension-induced model of heart failure with preserved ejection fraction; test: Fibrosis reduction in Dahl Salt Sensitive rat model of cardiac hypertrophy; type: in vivo; details: high-salt diet fed DSS rats, compound formulated in chow for 6 weeks, perivascular and interstitial cardiac tissue
Protocol: Assessment of fibrosis reduction was performed using Dahl Salt Sensitive (DSS) rats, a previously reported hypertension-induced rat model of heart failure with preserved ejection fraction (Fillmore et al., Mol Med. 2018, 24(1):3; Dahl et al., J Exp Med. 1962, 115:1173-90).
DSS rats received vehicle or Compound 142 formulated in low or high salt chow for 6 weeks. Perivascular and interstitial cardiac tissue samples were imaged and assayed for % cardiac fibrosis.

[3] = system: adult cardiac ventricular rat myocytes; test: Adult ventricular myocyte contractility (fractional shortening); type: cell-based; details: 5 min, 5 μM compound, 5 min perfusion, read-out: % FS (% reduction from baseline) ± SEM
Protocol: Adult male Sprague-Dawley rats were anesthetized and the hearts were quickly excised, rinsed and the ascending aorta was cannulated. Continuous retrograde perfusion was initiated on the hearts at a perfusion pressure of 60 cm H2O. Hearts were first perfused with a nominally Ca^2+-free modified Krebs solution of the following composition: 113 mM NaCl, 4.7 mM KCl, 0.6 mM KH2PO4, 0.6 mM Na2HPO4, 1.2 mM MgSO4, 12 mM NaHCO3, 10 mM KHCO3, 30 mM taurine, 5.5 mM glucose and 10 mM Hepes (all Sigma). This medium is not recirculated and is continually aerated with a 95% O2/5% CO2 mixture. After approximately 3 minutes the heart was perfused with a modified Krebs buffer supplemented with collagenase (Worthington) and 12.5 μM final calcium concentration. The heart was removed from the cannulae after the heart appeared blanched and soft in appearance. The atria and vessels were removed and the ventricles were gently dissected into smaller pieces with forceps. The tissue was homogenized by repeated pipette trituration and the collagenase reaction was stopped by 10% bovine calf serum (BCS), sedimentation and resuspension in perfusion buffer containing 5% BCS and 12.5 uM CaCl2). Myocytes were made calcium tolerant by stepwise addition of a CaCl2) solution to a final concentration of 1.2 mM. Cells were then washed and resuspended in Tyrode's buffer (137 mM NaCl, 3.7 mM KCl, 0.5 mM MgCl, 11 mM glucose, 4 mM Hepes, and 1.2 mM CaCl2), pH 7.4). Cells were kept for 60 min at 37° C. prior to initiating experiments and used within 5 hrs of isolation. […] Additionally, only cells whose basal contractility was between 3 and 8% were used in subsequent experiments with compounds.
Aliquots of myocytes in Tyrode's buffer were placed in perfusion chambers (series 20 RC-27NE; Warner Instruments) complete with heating platforms. Myocytes were allowed to attach, the chambers were heated to 37° C., and the cells were perfused with 37° C. Tyrode's buffer. Myocytes were field stimulated at 1 Hz in with platinum electrodes (20% above threshold). Only cells that had clear striations and were quiescent prior to pacing were used for contractility experiments. To determine basal contractility, myocytes were imaged through a 40× objective. […] Once cell contraction was stable over time, test compounds (0.01-15 μM) were perfused into the chambers on the myocytes for 5 minutes. Contractility of the myocytes and contraction and relaxation velocities were then recorded using edge detection.
Five or more individual myocytes were tested per compound from two or more different myocyte preparations. For each cell, twenty or more contractility transients at basal (defined as 1 min prior to compound infusion) and after compound addition (defined as 5 min after starting compound perfusion), were averaged and compared. These average transients were analyzed using the IonWizard software (IonOptix) to determine changes in diastolic length and fractional shortening. Fractional shortening was calculated as: ((resting length−length at peak contraction) divided by the resting length). The percent change in fractional shortening from baseline was calculated as: ((post-dose fractional shortening/basal fractional shortening)*100). The percent reduction in fractional shortening from baseline was calculated as: (100−percent change in fractional shortening from baseline). Maximum contraction and relaxation velocities (um/sec) was also determined. Results from individual cells are averaged and the SEM calculated.

[4] = system: rat cardiac contractility (left ventricle fractional shortening); test: Echocardiography of acute effect on rat cardiac contractility, continuous IV infusion; type: in vivo, Sprague Dawley rats; details: Rattus norvegicus, plasma concentration at which fractional shortening is 50% of pre-dose baseline, estimated, read-out: IC50 (Mean ± S.D.)
Summary of the method: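 Male Sprague Dawley rats under 1–3% isoflurane received compound in 50% PG/16% Captisol/10% DMA by jugular infusion at 1 mL/kg/h. Left-ventricle M-mode images were taken at baseline and every 5 min, with infusion stopped at up to 60% fall in fractional shortening. Plasma levels gave the estimated IC50, the concentration at which fractional shortening is 50% of baseline.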

## CC(C)c1nc(-c2ccc3c(c2)CC[C@H]3NC(=O)c2nnn(C)n2)no1 [Compound 142, (R)—N-(5-(5-isopropyl-1,2,4-oxadiazol-3-yl)-2,3-dihydro-1H-inden-1-yl)-2-methyl-2H-tetrazole-5-carboxamide]
[1]; Rattus norvegicus, 1 h, 1-2 h post dose, read-out: FS (% reduction from baseline) at 1-2 h post dose (Mean ± S.D.)
  inhibition in vivo at 6 mg/kg: 40 ± 9%
[1]; Rattus norvegicus, oral dosing, plasma concentration at which fractional shortening is 50% of pre-dose baseline, estimated
  IC50: 2900 nM
[1]; Rattus norvegicus, 4 h post dose, read-out: FS (% reduction from baseline) at 4 h post dose (Mean ± S.D.)
  inhibition in vivo at 6 mg/kg: 18 ± 11%
[1]; oral dosing, plasma concentration at which, estimated
  IC10: 700 nM
[2]
  % cardiac fibrosis: attenuated increases in fibrosis
[3]
  inhibition at 5 µM: 67.8%
[4]
  IC50: 2700 ± 120 nM

Reference: US12065436B2, “Cardiac sarcomere inhibitors” (Cytokinetics, Inc., priority 2018, dated 2024)
